According to PubChem BioAssay (NCI):
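Tested at 5 concentrations; 48 h exposure; 96-well plates; endpoints linearly interpolated, else capped at highest concentration. The concentration for full growth arrest is given as TGI.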

Experiments:
Experiment in all cases: DTP human tumour cell line panel, 48 h
[1] = tested on: HOP-62 NSCLC
[2] = tested on: SK-OV-3 ovarian
[3] = tested on: HCT-15 colon
[4] = tested on: OVCAR-4 ovarian
[5] = tested on: SNB-75 CNS
[6] = tested on: SR leukemia
[7] = tested on: SNB-19 CNS
[8] = tested on: IGROV1 ovarian
[9] = tested on: SF-268 CNS
[10] = tested on: MDA-MB-435

Row | Structure (SMILES) | TGI [1] | TGI [2] | TGI [3] | TGI [4] | TGI [5] | TGI [6] | TGI [7] | TGI [8] | TGI [9] | TGI [10]
1 | OCCN1CCN2C=C(C3CCCC4N(CCO)CCN34)CCC21 (stereo not given) | > 100 µM | > 100 µM | > 100 µM | > 100 µM | > 100 µM | 26.3 µM | > 100 µM | > 100 µM | > 100 µM | –
2 | CSc1ccc(/C=C2\N=C(c3ccccc3)N(c3nc4cc(C)c(C)cc4s3)C2=O)cc1 | 59.4 µM | > 100 µM | > 100 µM | > 100 µM | 55.2 µM | 54.2 µM | 83.9 µM | 81.4 µM | > 100 µM | 37.7 µM
3 | CC(C)Cc1cc2c(cc1O)CCC1C2CC[C@@]2(C)C1CC[C@@H]2O (stereo not given in full) | 33.1 µM | 24.3 µM | 21.7 µM | 24.3 µM | 33.3 µM | 19.8 µM | 21.1 µM | 33.1 µM | 39.4 µM | 27.8 µM
4 | COc1ccccc1/C=C1\NC(=S)N(/C=C2\C(=O)Oc3ccccc3C2=O)C1=O | > 100 µM | > 100 µM | > 100 µM | > 100 µM | > 100 µM | – | > 100 µM | > 100 µM | > 100 µM | > 100 µM
5 | CSc1nc2c(ncn2C2OCC(O)C(O)C2O)c(=O)n1C (stereo not given) | > 100 µM | > 100 µM | > 100 µM | > 100 µM | > 100 µM | – | > 100 µM | > 100 µM | > 100 µM | –
6 | O=C(C/C(=N/O)c1cc(-c2ccccc2)no1)c1ccccc1 | 40.2 µM | 38.4 µM | > 100 µM | 65.8 µM | – | > 100 µM | 73.3 µM | 86 µM | 42.5 µM | > 100 µM
7 | O=C(O)CCCc1ccc2ccccc2c1 | > 100 µM | > 100 µM | > 100 µM | > 100 µM | – | > 100 µM | > 100 µM | > 100 µM | > 100 µM | > 100 µM
8 | O=C(O)CC(Sc1ccccc1)c1ccccc1 (stereo not given) | > 100 µM | > 100 µM | > 100 µM | > 100 µM | > 100 µM | – | > 100 µM | > 100 µM | > 100 µM | > 100 µM
9 | COP(=O)(OC)C(O)CC(C)C (stereo not given) | > 100 µM | > 100 µM | – | > 100 µM | > 100 µM | – | > 100 µM | – | – | > 100 µM
10 | O=C(O)c1ccc(C2SCc3nc4ccccc4n32)cc1 (stereo not given) | > 100 µM | – | > 100 µM | > 100 µM | > 100 µM | > 100 µM | > 100 µM | > 100 µM | > 100 µM | –
11 | O=C(c1ccc(Cl)cc1)N(C(=S)OCc1ccccn1)c1ccccc1 | 75.7 µM | > 100 µM | > 100 µM | – | – | > 100 µM | > 100 µM | > 100 µM | > 100 µM | > 100 µM
12 | CCOC(=O)c1[nH]cc(C)c1-c1ccc2c(-c3ccccc3)nc3ccccc3n12 | 29.9 µM | 23.5 µM | 13.7 µM | 16.1 µM | 5.87 µM | 5.34 µM | – | 16.1 µM | 17.1 µM | 11.2 µM
13 | O=C(NCCNCCCNC(=O)c1cc(-c2ccccc2)nc2ccccc12)c1cccc(OCc2ccccc2)c1OCc1ccccc1 | 3.01 µM | 3.1 µM | 3.25 µM | 3.03 µM | 3.39 µM | – | – | 3.44 µM | – | 3.04 µM
14 | C/C(=N\Nc1nc2cccnc2s1)c1ccccn1 | – | 2.79 µM | 21.5 µM | 29.5 µM | 6.06 µM | > 100 µM | > 87 µM | 1.3 µM | – | > 100 µM
15 | COC(=O)C1=C(C(=O)OC)SC2(S1)C(C(=O)OC)=C(C(=O)OC)Sc1c2ssc1=Nc1ccc(Cl)cc1 | 3.36 µM | 4.29 µM | – | 2.43 µM | 2.3 µM | 1.73 µM | 2.95 µM | 2.48 µM | – | 2.14 µM
16 | C=C[C@]1(C)CCC2=C(CCC3C2(C)CCC[C@@]3(C)COC(C)=O)C1 (stereo not given in full) | 40.2 µM | 33 µM | 30.8 µM | > 100 µM | 36.7 µM | 35.8 µM | 31.9 µM | 38.1 µM | 40 µM | –
17 | COc1ccc(C2CC3(c4ccccc4)ON=C(c4ccccc4)N3c3ccccc3S2)cc1 (stereo not given) | > 100 µM | > 100 µM | > 100 µM | > 100 µM | > 100 µM | – | – | > 100 µM | > 100 µM | > 100 µM
18 | Cc1c2ccncc2c(C)c2c1[nH]c1ccc(OCC(F)(F)F)cc12 | 3.03 µM | 3.31 µM | 2.56 µM | 3.48 µM | 3.65 µM | 4.2 µM | 3.03 µM | 3.03 µM | 3.06 µM | –
19 | CC(=O)OC1COC(N2C(=O)C(=O)c3cc(Br)ccc32)C(OC(C)=O)C1OC(C)=O (stereo not given) | > 100 µM | > 100 µM | > 100 µM | > 100 µM | > 100 µM | > 100 µM | > 100 µM | > 100 µM | > 100 µM | –
20 | O=Cc1ccc(CCl)cc1 | – | 51.7 µM | 31.9 µM | – | – | > 100 µM | 29.4 µM | 46.3 µM | 66.9 µM | –
21 | CCCCCC/C=C1\CCC(CN2CCOCC2)C1=O (stereo not given) | 32.8 µM | > 79.4 µM | 25.9 µM | 38.8 µM | 42.3 µM | 13.6 µM | 38.9 µM | 36.6 µM | 43 µM | –
22 | O=C(OCc1ccccc1)N(CCCCN(CCCNCc1ccccc1)C(=O)OCc1ccccc1)CCCNCc1ccccc1 | – | > 100 µM | 1.17 µM | – | 2.69 µM | – | 1.11 µM | 2.05 µM | – | 0.335 µM
23 | COc1cc(C2C(Cl)C(=O)N2NC(=O)c2ccc(N)cc2)cc(Br)c1O (stereo not given) | 28.9 µM | 73 µM | 28.8 µM | 35.1 µM | 33.3 µM | – | 24 µM | 34 µM | 19.7 µM | –
24 | COC(=O)C1=C(C)C=C(N2CCOCC2)C(C(=O)OC)C1c1ccccc1 (stereo not given) | > 10 µM | > 10 µM | > 10 µM | > 10 µM | > 10 µM | – | > 10 µM | > 10 µM | > 10 µM | > 10 µM
